This assay deals with delF508-CFTR (Homo sapiens, UniProt P13569, DEL508-508). Nature of the assay: Western blot of delF508-CFTR membrane (surface) expression, Band C. It counts as cell-based. On the set-up: delF508 stably-transfected C127 cells were cultured in DMEM with 10% FBS in 6-well plates; expressed in transfected cells; host or cells: C127 cells stably expressing delF508-CFTR. The following applies: for influence on the effect of Lumacaftor (VX-809) on membrane expression of delF508-CFTR (words): added to 3 μM VX-809. The source says: The amount of CFTR proteins in the cell membrane can be determined with Western blot analysis. Like all membrane proteins in the cell, the CFTR protein is synthesized in the endoplasmic reticulum (ER), translocated to the Golgi apparatus for glycosylation before trafficked to the plasma membrane. Because of the addition of complex sugar molecules to CFTR, the molecular weight of “mature” or post-Golgi CFTR in the plasma membrane is higher than that of newly synthesized proteins in the ER. Thus, in Western blot, it is possible to discern two distinct bands: band C representing high molecular weight, mature CFTR, and band B low molecular weight, immature CFTR. While wild-type proteins are present mostly as band C, Class II disease-associated mutations such as delF508 causes a drastic diminution of band C, resulting in an effective decrease of N in the formula N×Po×i. The effects of the reagents (or CFTR correctors) that enhance band C can thus be quantitatively assessed with the Western blot analysis. By the same token, any interactions between different compounds, with positive or negative impact on band C, can be determined with this assay.
Chain of delF508-CFTR (P13569 with tags, fused parts or gaps DEL508-508): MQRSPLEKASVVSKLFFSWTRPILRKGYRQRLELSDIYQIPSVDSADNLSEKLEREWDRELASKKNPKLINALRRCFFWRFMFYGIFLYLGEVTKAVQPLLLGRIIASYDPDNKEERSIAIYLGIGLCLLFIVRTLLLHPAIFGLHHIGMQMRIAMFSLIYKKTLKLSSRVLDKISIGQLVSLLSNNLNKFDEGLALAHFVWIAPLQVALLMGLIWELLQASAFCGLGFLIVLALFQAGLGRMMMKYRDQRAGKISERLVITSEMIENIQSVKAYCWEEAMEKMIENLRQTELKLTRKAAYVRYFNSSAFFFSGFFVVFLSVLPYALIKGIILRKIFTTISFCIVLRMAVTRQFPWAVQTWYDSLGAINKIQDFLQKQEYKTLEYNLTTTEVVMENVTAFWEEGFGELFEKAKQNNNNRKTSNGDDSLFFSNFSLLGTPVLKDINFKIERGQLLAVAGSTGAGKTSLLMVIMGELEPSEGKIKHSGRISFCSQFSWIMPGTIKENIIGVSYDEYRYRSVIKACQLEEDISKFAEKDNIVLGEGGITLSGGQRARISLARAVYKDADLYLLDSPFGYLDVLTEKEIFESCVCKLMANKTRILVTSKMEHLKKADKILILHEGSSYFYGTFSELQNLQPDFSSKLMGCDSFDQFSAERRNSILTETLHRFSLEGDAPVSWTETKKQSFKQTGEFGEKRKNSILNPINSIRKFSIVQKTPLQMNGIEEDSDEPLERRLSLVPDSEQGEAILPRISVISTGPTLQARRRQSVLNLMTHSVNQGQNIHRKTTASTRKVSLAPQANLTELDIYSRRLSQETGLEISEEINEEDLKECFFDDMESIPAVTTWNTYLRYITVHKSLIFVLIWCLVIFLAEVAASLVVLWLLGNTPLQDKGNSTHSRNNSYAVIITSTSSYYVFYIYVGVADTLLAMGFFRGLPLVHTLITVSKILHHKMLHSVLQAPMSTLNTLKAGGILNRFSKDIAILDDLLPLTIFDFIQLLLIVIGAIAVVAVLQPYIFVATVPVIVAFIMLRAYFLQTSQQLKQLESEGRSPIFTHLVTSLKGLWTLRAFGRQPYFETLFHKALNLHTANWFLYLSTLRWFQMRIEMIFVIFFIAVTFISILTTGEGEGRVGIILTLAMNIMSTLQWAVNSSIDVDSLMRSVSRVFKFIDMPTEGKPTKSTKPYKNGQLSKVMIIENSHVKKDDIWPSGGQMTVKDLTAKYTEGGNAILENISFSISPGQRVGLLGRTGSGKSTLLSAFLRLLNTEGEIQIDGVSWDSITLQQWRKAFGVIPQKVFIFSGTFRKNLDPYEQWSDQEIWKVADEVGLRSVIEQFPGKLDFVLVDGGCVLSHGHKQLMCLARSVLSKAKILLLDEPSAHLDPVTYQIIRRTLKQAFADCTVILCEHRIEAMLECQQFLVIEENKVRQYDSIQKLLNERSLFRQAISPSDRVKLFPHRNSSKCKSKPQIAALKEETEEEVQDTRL
Western blot experiments were carried out in both transient expression system (CHO cells) and a stable cell line (C127 cells). CHO cells, grown in 35 mm dishes, were transfected with delF508-CFTR construct in pcDNA plasmids using X-tremeGENE (Roche). Six hours after transfection, tested compounds were added to the medium. In case of delF508-CFTR-expressing stable C127 cells, compounds were added to the medium at about 30% confluence. In both cases, cells were lysed 18 hours post drug treatment using 1×SDS loading buffer. Cell lysates were sheared by pushed through 18G needles. Whole cell lysate were separated in 4˜20% gradient gels (Bio-Rad Laboratories) and transferred onto nitrocellulose membranes. The membranes were blocked with 5% milk in TBST buffer (20 mM Tris, 137 mM NaCl, 0.1% Tween 20) at 4° C. overnight. The membranes were then probed with anti-CFTR antibody (AB596 from the Cystic Fibrosis Foundation) and anti-vimentin antibody as a control (Santa Cruz Biotechnology) at room temperature for two hours. The membranes were washed with TBST five times and then incubated with anti-mouse IgG, HRP-linked antibody (Cell Signaling Technology) at room temperature for one hour. The membranes were washed three times with TBST and developed with chemiluminescence reagent (Thermo Scientific). The luminescence was detected and quantified by a Molecular Image Chemi Doc (Bio-Rad Laboratories).
For Western blotting experiments, delF508 stably-transfected C127 cells were cultured in DMEM with 10% FBS in 6-well plates. Different tested compounds were added to the culture medium within 24 hours of passage to the desired concentration. Cells were lysed 18 hours post drug treatment using 1×SDS loading buffer. Cell lysates were sheared by pushed through 18G needles. Whole cell lysates were separated in 4-20% gradient gels (Bio-Rad Laboratories) and transferred onto nitrocellulose membranes. The membranes were blocked with 5% milk in TBST buffer (20 mM Tris, 137 mM NaCl, 0.1% Tween 20) at 4° C. overnight. The membranes were then probed with anti-CFTR antibody (AB660 from CFTR foundation) and anti-vimentin antibody as a loading control (Santa Cruz Biotechnology) at room temperature for two hours. The membranes were washed with TBST five times and then incubated with anti-mouse IgG, HRP linked antibody (Cell Signaling Technology) at room temperature for one hour. The membranes were washed three times with TBST and developed with chemiluminescence reagent (Thermo Scientific). The luminescence was detected by a Molecular Image Chemi Doc (Bio-Rad Laboratories). […]
A general note: Immunoblotting shows a protein as a band on a membrane.

Where “and” joins values, the source holds several entries; their conditions need not be identical. Equal values may be shown once. Entries after “also recorded” stand apart in the source; their conditions may differ.

Take `CC(C)(C)c1cc(C(C)(C)C)c(NC(=O)c2c[nH]c3ccccc3c2=O)cc1O` [VX-770, Ivacaftor, reference compound]: the “influence on the effect of Lumacaftor (VX-809) on membrane expression of delF508-CFTR (words)” value is on record as “dampens this effect; also recorded: dampens the effect of VX-809”. Under “3 μM VX-809 + 1 μM VX-770, C127 cells, lane 6, one value per experiment series”, the “surface expression of delF508-CFTR (Band C, corrected to vimentin, DMSO = 100)” value was 334 ± 81, N = 5 and 182 ± 57, N = 4 and 172 ± 50, N = 4. Moreover, the “influence on the effect of Lumacaftor (VX-809) on membrane expression of delF508-CFTR (words)” value (listed as Ivacaftor) is “diminishes the effect of Lumacaftor”.

Source of the values: US20190210973A1, “COMPOUNDS AND METHODS FOR TREATMENT OF CYSTIC FIBROSIS” (The Curators of the University of Missouri, priority 2018, published 2019).
